Laboratory results as given in ChEMBL document CHEMBL5724914, “Linking interpersonal differences in gut microbiota composition and drug biotransformation activity” (2024).

What was measured:
[1] = (§1) The drug is tested on WLS-098 corresponding to human gut metagenome with ENA study accession number: PRJEB37062 and ENA sample accession number: ERS12561754 for biotransformation under anaerobic condition. The drug concentrations were measured over 9 timepoints collected between 0 and 24 hours of incubation by liquid-chromatography-coupled mass spectrometry (LC–MS); conditions: 2 µM
[2] = as §1, with “Z-002” for “WLS-098”, “rabbit” for “human”, “ERS12561802” for “ERS12561754”; conditions: 2 µM
[3] = human gut metagenome, 24 h, 2 µM
[4] = as §1, with “WLS-240” for “WLS-098”, “ERS12561773” for “ERS12561754”; conditions: 2 µM
[5] = as §1, with “Z-029” for “WLS-098”, “rat” for “human”, “ERS12561828” for “ERS12561754”; conditions: 2 µM
[6] = as §1, with “Z-024” for “WLS-098”, “pig” for “human”, “ERS12561823” for “ERS12561754”; conditions: 2 µM
[7] = as §1, with “WLS-069” for “WLS-098”, “ERS12561748” for “ERS12561754”; conditions: 2 µM
[8] = human gut metagenome, 24 h, 2 µM; remark: listed apart in the source
[9] = as §1, with “Z-016” for “WLS-098”, “mouse” for “human”, “ERS12561815” for “ERS12561754”; conditions: 2 µM
[10] = as §1, with “Z-012” for “WLS-098”, “to” for “to human gut”, “ERS12561812” for “ERS12561754”; conditions: 2 µM
[11] = human gut metagenome, 24 h, 2 µM; remark: listed apart in the source
[12] = as §1, with “Z-011” for “WLS-098”, “mouse” for “human”, “ERS12561811” for “ERS12561754”; conditions: 2 µM
[13] = as §1, with “WLS-038” for “WLS-098”, “ERS12561745” for “ERS12561754”; conditions: 2 µM
[14] = human gut metagenome, 24 h, 2 µM; remark: listed apart in the source
[15] = human gut metagenome, 24 h, 2 µM; remark: listed apart in the source
[16] = human gut metagenome, 24 h, 2 µM; remark: listed apart in the source
[17] = human gut metagenome, 24 h, 2 µM; remark: listed apart in the source
[18] = human gut metagenome, 24 h, 2 µM; remark: listed apart in the source
[19] = human gut metagenome, 24 h, 2 µM; remark: listed apart in the source
[20] = as §1, with “Z-027” for “WLS-098”, “to” for “to human gut”, “ERS12561826” for “ERS12561754”; conditions: 2 µM
Further: call rule not given here.

CCN(C(C)=O)c1cccc(-c2ccnc3c(C#N)cnn23)c1 [ZALEPLON]
Bacterial Biotransformation [1]: Compound metabolized | Bacterial Biotransformation [2]: Compound metabolized | Bacterial Biotransformation [3]: Compound NOT metabolized | Bacterial Biotransformation [4]: Compound metabolized | Bacterial Biotransformation [5]: Compound NOT metabolized | Bacterial Biotransformation [6]: Compound NOT metabolized | Bacterial Biotransformation [7]: Compound metabolized | Bacterial Biotransformation [8]: Compound metabolized | Bacterial Biotransformation [9]: Compound metabolized | Bacterial Biotransformation [10]: Compound metabolized | Bacterial Biotransformation [11]: Compound metabolized | Bacterial Biotransformation [12]: Compound NOT metabolized | Bacterial Biotransformation [13]: Compound metabolized | Bacterial Biotransformation [14]: Compound NOT metabolized | Bacterial Biotransformation [15]: Compound metabolized | Bacterial Biotransformation [16]: Compound metabolized | Bacterial Biotransformation [17]: Compound metabolized | Bacterial Biotransformation [18]: Compound metabolized | Bacterial Biotransformation [19]: Compound metabolized | Bacterial Biotransformation [20]: Compound NOT metabolized
